This is an account of results in US9913831B2, “Methods and compositions for treating nephrogenic diabetes insipidus” (UNIVERSITY OF UTAH RESEARCH FOUNDATION, priority 2011, dated 2018).

In this data set the test system is lithium-treated rats. Kind of data set: Effect of clopidogrel on lithium-induced alterations in rats (natriuresis, urinary nitrates/nitrites, hematocrit, body and kidney weight). Conditions: 2 weeks. The procedure: Animal experiments: Male Sprague-Dawley rats were purchased from Charles River (Wilmington, Mass., USA), and Brattleboro mutant rats that lack AVP (HsdBlu:BRAT-Avp^di) were obtained from the Rat Resource & Research Center (RRRC), University of Missouri, Columbia, Mo., USA. Mice (B6D2 genetic background) were bred in-house. […] Lithium-added chow (40 mmol Li/kg chow) was custom prepared (MP Biomedicals, Aurora, Ohio, USA). Clopidogrel bisulfate was administered orally by powdering and dissolving Plavix® tablets (Bristol-Myers Squibb, New York, N.Y., USA) in drinking water. The concentration of the drug in the drinking water was adjusted daily based on the water consumption of the animals the previous day. The clopidogrel dose used in Sprague-Dawley rats (20 mg/kg bw/day) was the same as used by other investigators (de La Crux et al, 2003; Graciano et al, 2008). In mice, clopidogrel was administered at a dose of 80 mg/kg bw/day. When compared with the human clinical dose of Plavix®, and adjusted to the Km factor (ratio of body surface area to body weight) of the species (man vs. rat or mouse) (Reagan-Shaw et al, 2007), the doses used in rats or mice were 2.5- and 5-fold higher, respectively. […] A higher dose of clopidogrel (40 mg/kg bw/day) was used in Brattleboro rats to ensure an unequivocal outcome whether positive or negative. Twenty-four hour urine samples were collected by placing the animals in the appropriate metabolic cages designed for rats and mice. Blood and kidney tissues were collected at necropsy. Cortical, outer and inner medullary regions of the kidneys were dissected out and processed for laboratory assays.
Blood, urine and tissue analysis: Osmolalities of clear urine samples were measured by vapor pressure method (Wescor, Logan, Utah, USA). Microhematocrit was determined by centrifuging free-flowing blood collected in heparinized capillary tubes in a microhematocrit centrifuge (Clay Adams, Parsippany, N.J., USA). Urinary excretion of AVP was quantified by a commercial ELISA kit (Enzo Life Sciences, Farmingdale, N.Y., USA). Total nitrate/nitrite contents of urine samples were determined by a commercial kit (Cayman Chemical, Ann Arbor, Mich.).Na, Li and K levels in serum and/or urine were determined on EasyElectrolyte® (Medica Corp., Bedford, Mass., USA). Based on serum and urine analysis, electrolyte-free clearance [CH20(e)] was computed using the formula CH20(e)=V((1−UNa+UK)/PNa), where V=urine volume, UNa and UK are urine Na and K, and PNa is plasma Na, respectively (Schrier 2006). Lithium levels in inner medullary tissue homogenates were assayed by Inductively Coupled Plasma-Mass Spectrometry (ICPMS) by Exova (Santa Fe Springs, Calif., USA), and were normalized to their respective protein contents.
Statistical Analysis: All quantitative data are expressed as mean±standard error (SE). Comparisons among the means of multiple groups were made by one-way analysis of variance (ANOVA), followed by the assessment of statistical significance by Tukey-Kramer Multiple Comparison Test or Student-Newman-Keuls Multiple Comparison Test. Differences between the means of two groups were determined by unpaired t test or where applicable, by Mann-Whitney nonparametric test. P values less than 0.05 were considered significant. GraphPad Instat® (GraphPad Software, Inc., La Jolla, Calif.) was used for statistical analysis.

Where [1] appears, read: rats, lithium treatment alone (40 mmol Li/kg chow).

In the case of `[Li]` [Lithium, lithium], the “kidney weight as a percent of body weight” value (lithium-treated rats with or without added clopidogrel) is listed as “did not change”. Moreover, under setting [1], the “gain in body weight” value was “significantly low” and the terminal hematocrit result is listed as “significant elevation”.
